SMILES strings stand for the structures.

The test is described as follows: Cytotoxicity against human HeLaS3 cells by WST1 assay. Type of test: functional, cell-based. The note with it: HeLa S3.
As to `CCC(C)CC(=O)O[C@@H]1OC=C(CO)[C@H]2C[C@H](OC(=O)/C=C/c3ccc(O)cc3)[C@](O)(CO)[C@@H]12` (stereo not given in full) [1-O-DEISOVAEROYL-1-O-3-METHYLVALEROYL-LUZONOID A], half-maximal inhibition (IC50) required 7.4 µM.

In the case of `O=c1[nH]cc(F)c(=O)[nH]1` [FLUOROURACIL], the IC50 stood at 5.4 µM. To `CC(C)CC(=O)O[C@@H]1OC=C(CO)[C@H]2C[C@H](OC(=O)/C=C/c3ccc(O)cc3)[C@](O)(CO)[C@@H]12` [LUZONOID A] belongs 2.89 µM; to `CC(C)CC(=O)O[C@@H]1OC=C(CO)[C@H]2C[C@H](OC(=O)/C=C\c3ccc(O)cc3)[C@](O)(CO)[C@@H]12` [LUZONOID B], 3.11 µM; to `CC(C)CC(=O)O[C@@H]1OC=C(CO)[C@H]2C[C@H](O)[C@](O)(COC(=O)/C=C/c3ccc(O)cc3)[C@@H]12` [LUZONOID C], 3.57 µM. Next, `CC(C)CC(=O)O[C@@H]1OC=C(CO)[C@H]2C[C@H](O)[C@](O)(COC(=O)/C=C\c3ccc(O)cc3)[C@@H]12` [LUZONOID D]: 4.56 µM; `CC(C)CC(=O)O[C@@H]1OC=C(CO[C@@H]2O[C@H](CO)[C@@H](O)[C@H](O)[C@H]2O)[C@H]2C[C@H](OC(=O)/C=C/c3ccc(O)cc3)[C@](O)(CO)[C@@H]12` [LUZONOSIDE A]: 3.39 µM. `CC(C)CC(=O)O[C@@H]1OC=C(CO[C@@H]2O[C@H](CO)[C@@H](O)[C@H](O)[C@H]2O)[C@H]2C[C@H](OC(=O)/C=C\c3ccc(O)cc3)[C@](O)(CO)[C@@H]12` [LUZONOSIDE B] registered an IC50 of 4.67 µM.

The compound `COC(=O)C1=CO[C@@H](O[C@@H]2O[C@H](CO)[C@@H](O)[C@H](O)[C@H]2O)[C@@H]2[C@@H](COC(=O)/C=C/c3ccc(O)cc3)CC[C@H]12` [LUZONOSIDE C] showed an IC50 of 100 µM. For `COC(=O)C1=CO[C@@H](O[C@@H]2O[C@H](CO)[C@@H](O)[C@H](O)[C@H]2O)[C@@H]2[C@@H](COC(=O)/C=C\c3ccc(O)cc3)CC[C@H]12` [LUZONOSIDE D], the IC50 turned out to be 100 µM.
